Data reported in ChEMBL document CHEMBL1201862, “PubChem BioAssay data set” (2004).
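Protocol summary: plate cells (96-well), add compound at 5 concentrations, incubate 48 h, interpolate endpoints linearly. GI50 marks 50% less growth.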 The source made the active and inactive calls. No stated cut-off is given here; in the data, active = GI50 up to about 1.1 µM and inactive = higher.

What was measured:
Assay in all cases: NCI anticancer screen, dose series, 48 h
A498 = tested on: A498
A549 = tested on: A549
CAKI-1 = tested on: CAKI-1
CCRF-CEM = tested on: CCRF-CEM
COLO 205 = tested on: COLO 205
DLD-1 = tested on: DLD-1
DMS-114 = tested on: DMS-114
DMS-273 = tested on: DMS-273
EKVX = tested on: EKVX
HCC 2998 = tested on: HCC 2998
HCT-116 = tested on: HCT-116
HCT-15 = tested on: HCT-15
HL-60 = tested on: HL-60
HOP-18 = tested on: HOP-18
HOP-62 = tested on: HOP-62
HOP-92 = tested on: HOP-92
HT-29 = tested on: HT-29
IGROV-1 = tested on: IGROV-1
K562 = tested on: K562
KM-20L2 = tested on: KM-20L2
KM12 = tested on: KM12
LOX IMVI = tested on: LOX IMVI
M19-MEL = tested on: M19-MEL
MCF7 = tested on: MCF7
MOLT-4 = tested on: MOLT-4
Malme-3M = tested on: Malme-3M
NCI-H226 = tested on: NCI-H226
NCI-H23 = tested on: NCI-H23
NCI-H460 = tested on: NCI-H460
NCI-H522 = tested on: NCI-H522
NCI/ADR-RES = tested on: NCI/ADR-RES
OVCAR-3 = tested on: OVCAR-3
OVCAR-4 = tested on: OVCAR-4
OVCAR-5 = tested on: OVCAR-5
OVCAR-8 = tested on: OVCAR-8
RPMI-8226 = tested on: RPMI-8226
RXF 393 = tested on: RXF 393
SF-268 = tested on: SF-268
SF-295 = tested on: SF-295
SF-539 = tested on: SF-539
SK-MEL-28 = tested on: SK-MEL-28
SK-MEL-2 = tested on: SK-MEL-2
SK-MEL-5 = tested on: SK-MEL-5
SK-OV-3 = tested on: SK-OV-3
SN12C = tested on: SN12C
SNB-19 = tested on: SNB-19
SNB-75 = tested on: SNB-75
SW-620 = tested on: SW-620
U-251 = tested on: U-251
UACC-257 = tested on: UACC-257
UACC-62 = tested on: UACC-62
UO-31 = tested on: UO-31
XF498 = tested on: XF498
786-0 = tested on: 786-0
ACHN = tested on: ACHN
LXFL 529 = tested on: LXFL 529
M14 = tested on: M14
SR = tested on: SR
TK-10 = tested on: TK-10

COc1cc(C2c3cc4c(cc3[C@@H](Nc3cccc(CO)c3)C3COC(=O)[C@H]23)OCO4)cc(OC)c1O (stereo not given in full) was tested, and the GI50 (A498) was 0.293 µM (active), the GI50 (A549) was < 0.0281 µM (active) and the GI50 (CAKI-1) was 0.205 µM (active). For the same compound, the GI50 (CCRF-CEM) was 0.078 µM (active), the GI50 (COLO 205) was 1.54 µM (inactive) and the GI50 (DLD-1) was 1.43 µM (inactive). The GI50 (DMS-114) was 0.427 µM (active), the GI50 (DMS-273) was 0.153 µM (active) and the GI50 (EKVX) was 3.31 µM (inactive). The GI50 (HCC 2998) was 1.73 µM (inactive), the GI50 (HCT-116) was 0.624 µM (active) and the GI50 (HCT-15) was 0.875 µM. For the same compound, the GI50 (HL-60) was < 0.0218 µM (active), the GI50 (HOP-18) was 1.1 µM (active) and the GI50 (HOP-62) was 0.156 µM (active). For the same compound, the GI50 (HOP-92) was 0.569 µM (active), the GI50 (HT-29) was 0.984 µM (active) and the GI50 (IGROV-1) was 1.62 µM (inactive). For the same compound, the GI50 (K562) was 0.178 µM (active), the GI50 (KM-20L2) was 0.766 µM (active) and the GI50 (KM12) was 1.72 µM (inactive). The GI50 (LOX IMVI) was 0.438 µM (active), the GI50 (M19-MEL) was 0.871 µM (active) and the GI50 (MCF7) was 0.22 µM (active). The GI50 (MOLT-4) was 0.0448 µM (active), the GI50 (Malme-3M) was 1.56 µM (inactive) and the GI50 (NCI-H226) was 0.308 µM (active). For the same compound, the GI50 (NCI-H23) was 0.375 µM (active), the GI50 (NCI-H460) was < 0.01 µM (active) and the GI50 (NCI-H522) was 1 µM (active). The GI50 (NCI/ADR-RES) was 1.34 µM (inactive), the GI50 (OVCAR-3) was 1.32 µM (inactive) and the GI50 (OVCAR-4) was 6.84 µM (inactive). For the same compound, the GI50 (OVCAR-5) was 2.04 µM (inactive), the GI50 (OVCAR-8) was 1.33 µM (inactive) and the GI50 (RPMI-8226) was 0.244 µM (active). The GI50 (RXF 393) was 1.27 µM (inactive), the GI50 (SF-268) was 0.923 µM (active) and the GI50 (SF-295) was 0.218 µM (active). The GI50 (SF-539) was 0.352 µM (active), the GI50 (SK-MEL-28) was 2.24 µM (inactive) and the GI50 (SK-MEL-2) was 2.74 µM (inactive). The GI50 (SK-MEL-5) was 0.56 µM (active), the GI50 (SK-OV-3) was 1.61 µM (inactive) and the GI50 (SN12C) was 0.558 µM (active). For the same compound, the GI50 (SNB-19) was 0.453 µM (active), the GI50 (SNB-75) was 0.94 µM (active) and the GI50 (SW-620) was 1.41 µM (inactive). For the same compound, the GI50 (U-251) was 0.516 µM (active), the GI50 (UACC-257) was 0.173 µM (active) and the GI50 (UACC-62) was 0.307 µM (active). The GI50 (UO-31) was 0.541 µM (active) and the GI50 (XF498) was 0.154 µM (active).

In the case of COc1cc(C)c(CC/C(C)=C/Cc2cc(O)ccc2O)c(C)c1C [PANICEIN A HYDROQUINONE], the GI50 (786-0) is reported as > 25 µM (inactive), the GI50 (A498) is reported as > 25 µM (inactive) and the GI50 (A549) is reported as > 25 µM (inactive). The GI50 (ACHN) was > 25 µM (inactive), the GI50 (CAKI-1) was > 25 µM (inactive) and the GI50 (CCRF-CEM) was 7.69 µM (inactive). For the same compound, the GI50 (COLO 205) was > 25 µM (inactive), the GI50 (DLD-1) was > 25 µM (inactive) and the GI50 (DMS-114) was > 25 µM (inactive). For the same compound, the GI50 (DMS-273) was > 25 µM (inactive), the GI50 (EKVX) was > 25 µM (inactive) and the GI50 (HCC 2998) was > 25 µM (inactive). The GI50 (HCT-116) was > 25 µM (inactive), the GI50 (HCT-15) was over 25 µM and the GI50 (HL-60) was > 25 µM (inactive). The GI50 (HOP-18) was > 25 µM (inactive), the GI50 (HOP-92) was > 25 µM (inactive) and the GI50 (HT-29) was > 25 µM (inactive). For the same compound, the GI50 (IGROV-1) was > 25 µM (inactive), the GI50 (K562) was > 25 µM (inactive) and the GI50 (KM-20L2) was > 25 µM (inactive). The GI50 (KM12) was > 25 µM (inactive), the GI50 (LXFL 529) was > 25 µM (inactive) and the GI50 (M14) was > 25 µM (inactive). For the same compound, the GI50 (M19-MEL) was > 25 µM (inactive), the GI50 (MOLT-4) was > 25 µM (inactive) and the GI50 (Malme-3M) was > 25 µM (inactive). The GI50 (NCI-H226) was > 25 µM (inactive), the GI50 (NCI-H23) was > 25 µM (inactive) and the GI50 (NCI-H460) was > 25 µM (inactive). The GI50 (NCI-H522) was > 25 µM (inactive), the GI50 (OVCAR-3) was > 25 µM (inactive) and the GI50 (OVCAR-4) was > 25 µM (inactive). For the same compound, the GI50 (OVCAR-8) was > 25 µM (inactive), the GI50 (RPMI-8226) was > 25 µM (inactive) and the GI50 (RXF 393) was > 25 µM (inactive). For the same compound, the GI50 (SF-268) was > 25 µM (inactive), the GI50 (SF-295) was > 25 µM (inactive) and the GI50 (SF-539) was > 25 µM (inactive). For the same compound, the GI50 (SK-MEL-28) was > 25 µM (inactive), the GI50 (SK-MEL-2) was > 25 µM (inactive) and the GI50 (SK-MEL-5) was > 25 µM (inactive). For the same compound, the GI50 (SK-OV-3) was > 25 µM (inactive), the GI50 (SN12C) was > 25 µM (inactive) and the GI50 (SNB-19) was > 25 µM (inactive). The GI50 (SNB-75) was > 25 µM (inactive), the GI50 (SR) was > 25 µM (inactive) and the GI50 (SW-620) was > 25 µM (inactive). For the same compound, the GI50 (TK-10) was > 25 µM (inactive), the GI50 (U-251) was > 25 µM (inactive) and the GI50 (UO-31) was > 25 µM (inactive). For the same compound, the GI50 (XF498) was > 25 µM (inactive).
